Reference: patent publication US10440975B2, “Feed additive composition for reducing methane gas produced by ruminant animals” (CJ CHEILJEDANG CORPORATION, priority 2014, dated 2019)

Test system: rumen fluid
Assay: Rumen simulation continuous culture system (RSCC): methane production, pH, digestibility
Format: cell-based
Details: vs control group
Method: 0.12 mL of a micromineral solution was added to 250 mL of distilled water in an 2 L of Erlenmeyer flask and stirred. Another 250 mL of distilled water was added, and then stirred for 20 minutes. Then, 250 mL of an in vitro buffer solution was added and stirred for 10 minutes. Then, 250 mL of a macromineral solution was added and stirred for 15 minutes. Then, 1.25 mL of a resazurin solution was added to the mixture and stirred. Then, the flask was sealed with aluminum foil and heated while maintaining an anaerobic condition by bubbling CO2 gas in a Hungate anaerobic culture tube. When the solution started boiling, the solution was heated for 10 more minutes and then cooled down. 50 mL of a reduction solution was added to the cooled solution to obtain a buffer.
A sampled rumen fluid was first filtered through eight-layer gauze and then through glass wool. The filtered rumen fluid was maintained in an anaerobic condition by CO2 bubbling. While maintaining the anaerobic condition by CO2 bubbling, the buffer solution prepared in 1) above was mixed with the rumen fluid (250 mL of the rumen fluid, 600 mL of the buffer solution).
10 g of a substrate was added to a fermenter. The buffer solution prepared in 1) was added into a buffer bag while maintaining the anaerobic condition. A Tedlar bag filled with CO2 gas was connected to the buffer bag, and a tube connected to the buffer bag was connected to a buffer inlet port of the fermenter lid. Then a tube connected to a gas collecting bag was connected to a gas collecting port of the fermenter lid (a tube for gas was used). A pH probe and a temperature probe were placed deep enough to reach the culture medium while not touching the impellers. In the meantime, a feed inlet tube was placed deep enough to reach the culture medium through the feeding port of the fermenter lid. The fermenter lid was then connected to the fermenter and an anaerobic condition inside the fermenter was maintained by using vacuum grease and Teflon tape. CO2 gas was introduced into the fermenter through the gas collecting port for about 10 minutes (making the inside of the fermenter anaerobic, continuously introducing CO2 gas until the initiation of cultivation). All joint connections were sealed with vacuum grease and Teflon tape. Once all devices were installed, a peristaltic pump was activated and the buffer solution was introduced into the fermenter. The anaerobic culture medium was introduced into the fermenter until it overflowed, and then the CO2 gas introduction into the fermenter was discontinued and all inlet ports were sealed. The fermenter was then connected to a circulator, and cultivation started at 39° C. with a stirring speed between 99 rpm and 102 rpm. The pH of the culture medium of the fermenter was between 6.8 and 7.1, and a temperature was maintained at between 39° C. and 40° C. A turnover rate of the culture medium was stabilized at 0.042 h^−1 while a turnover rate of the substrate was stabilized at 0.017 h^−1.
Below is an experiment on reduction of methane production conducted in accordance with the above operation method using the RSCC system of 3) of Preparation Example. A feed additive for reducing methane was added with the substrate when the substrate was added.
The RSCC system was operated for five days of adjustment, and then total gas production, methane production, and pH values of the control group were measured for three days. After the measurements of the control group were completed, DADS was added at ratios of 0.1 wt %, 0.2 wt %, and 0.4 wt % per 10 g of a substrate, and then total gas production, methane production, and pH values were measured at the same time for another three days. The methane reduction rate was measured after having an adjustment period with a newly sampled rumen fluid every time one additive examines.

[1] = additive 0.1 wt % per 10 g of substrate
[2] = additive 0.5 wt % per 10 g of substrate

Compound: COc1ccc2cc3[n+](cc2c1OC)CCc1cc2c(cc1-3)OCO2 [Berberine, 5,6-dihydro-9,10-dimethoxybenzo[g]-1,3-benzodioxolo[5,6-a]quinolizinium]
- Methane Reduction (%) [1]: 6.7%
- Methane Reduction (%) (additive 0.2 wt % per 10 g of substrate): 12.4%
- Methane Reduction (%) [2]: 45.5%

Compound: C=CCSSCC=C [DADS, 4,5-dithia-1,7-octadiene diallyldisulfide]
- Methane Reduction (%) [1]: 30.5%

Compound: O=[N+]([O-])O [Nitrate]
- Methane Reduction (%) (additive 0.35 wt % per 10 g of substrate): 14.0%
- Methane Reduction (%) [2]: 31.0%
- Methane Reduction (%) (additive 1.0 wt % per 10 g of substrate): 8.1%

Compound: ((2R)-2-amino-3-[(S)-prop-2-enylsulfinyl] propanoic acid [Alliin]
- Methane Reduction (%) [2]: 21.9%
